These results are taken from the NIST ThermoML archive (doi:10.1016/j.jct.2004.04.004).

The nature of data set [1]: refractive index (Na D-line) (dimensionless). The conditions noted are these: 293.15 K; 101.33 kPa; Liquid; Standard Abbe refractometry.
For data set [2] the following is noted: 298.15 K; 101.33 kPa; Liquid.

± gives the expanded uncertainty stated by the source.

The refractive index is the speed of light in vacuum divided by its phase velocity in the sample. As a reminder, the mass density is the mass of a sample divided by its volume. With `Cc1ccccc1C` [1,2-dimethylbenzene], the refractive index in data set [1] is given as 1.5057 ± 0.0007. Also, in data set [2], the mass density is given as 875.73 ± 0.44 kg/m3.

For the compound `Cc1cccc(C)c1` [1,3-dimethylbenzene], the refractive index in data set [1] was found to be 1.4973 ± 0.0008. Besides, in data set [2], the mass density came to 859.83 ± 0.99 kg/m3.

Consider `Cc1ccc(C)cc1` [1,4-dimethylbenzene], for which the refractive index in data set [1] is 1.49577 ± 0.00075. Besides, the mass density in data set [2] is given as 856.58 ± 0.63 kg/m3.

`C[S+](C)[O-]` [dimethyl sulfoxide]: the refractive index in data set [1] is on record as 1.4785 ± 0.0007. Besides, in data set [2], the mass density amounted to 1095.62 ± 0.39 kg/m3.
